Reference: patent US7728155B2, “Dihydrobenzofuranyl alkanamines and methods for using same as cns agents” (Wyeth LLC, priority 2003, dated 2010)
Counter-ions that a name gives are not always drawn. Like-named read-outs stand apart in the source and are kept apart here.

How the values were obtained:
[1] = target: T1, human 5-HT2C receptor (Homo sapiens, UniProt P28335); experiment: 5-HT2C receptor-stimulated calcium mobilization (FLIPR) in CHO cells; format: cell-based; details: for Emax: CHO, read-out: 5-HT2C Function Emax (%); for EC50: calcium mobilization, CHO cells expressing human 5-HT2C, read-out: 5-HT2C Function EC50
T1 sequence (P28335 33-458): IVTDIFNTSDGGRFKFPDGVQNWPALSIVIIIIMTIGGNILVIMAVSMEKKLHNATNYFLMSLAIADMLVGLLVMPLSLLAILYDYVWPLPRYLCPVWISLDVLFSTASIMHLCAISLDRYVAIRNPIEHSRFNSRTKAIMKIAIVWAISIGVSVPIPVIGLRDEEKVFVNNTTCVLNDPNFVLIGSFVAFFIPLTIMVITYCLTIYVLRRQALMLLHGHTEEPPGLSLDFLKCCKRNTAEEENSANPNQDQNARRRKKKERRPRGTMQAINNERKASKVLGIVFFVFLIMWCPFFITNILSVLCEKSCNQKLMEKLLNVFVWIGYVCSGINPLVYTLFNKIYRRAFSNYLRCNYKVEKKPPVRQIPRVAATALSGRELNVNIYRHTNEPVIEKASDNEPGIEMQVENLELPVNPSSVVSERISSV

[2] = target: T2, human 5-hydroxytryptamine-2C (h5-HT2C) receptor (Homo sapiens, UniProt P28335); experiment: [125I]DOI binding affinity at h5-HT2C receptor, CHO cell membranes; details: for Ki: [125I]DOI displacement, CHO membranes expressing h5-HT2C
T2 construct: expressed in transfected cells; host or cells: CHO (Chinese Hamster Ovary) cells; membranes
T2 sequence (P28335 33-458): T1 sequence (P28335 33-458)

[3] = percentage of the response to a maximally effective concentration of 5-HT

| SMILES | Emax [1, 3] [%] | EC50 [1] [µM] | Ki ([2]; read-out: 5-HT2C Affinity Ki) [nM] | 5-HT2C Function Emax (%) [1, 3] [%] | further results |
| --- | --- | --- | --- | --- | --- |
| NCC1Cc2ccc3c(c2O1)CCC3 (racemic) [Example 1, (±)-1-(3,6,7,8-tetrahydro-2H-indeno[4,5-b]furan-2-yl)methanamine] | 90 | 0.031 | 10 | – | – |
| COc1cc2c(c3c1C1CCC3CC1)OC(CN)C2 (single isomer, unassigned; (-)) [Example 21, (−)-1-(5-methoxy-2,3,6,7,8,9-hexahydro-6,9-ethanonaphtho[1,2-b]furan-2-yl)methanamine] | – | 0.0008 | 4 | 90 | – |
| NCC1Cc2cc(Cl)c3c(c2O1)CCC3 (single isomer, unassigned; (+)) [Example 31, (+)-1-(5-chloro-3,6,7,8-tetrahydro-2H-indeno[4,5-b]furan-2-yl)methanamine] | – | 0.01 | 1 | 40 | – |
| Cc1cc2c(c3c1CCC3)OC(CN)C2 (single isomer, unassigned; (-)) [Example 9, (−)-1-(5-methyl-3,6,7,8-tetrahydro-2H-indeno[4,5-b]furan-2-yl)methanamine] | – | 0.011 | 11 | 100 | – |
| NCC1Cc2ccc3ccccc3c2O1 (racemic) (as salt: hydrochloride) [Example 10, (±)-1-(2,3-dihydronaphtho[1,2-b]furan-2-yl)methanamine] | – | – | – | – | melting point: > 250 °C (dec.) |
| NCC1Cc2ccc3ccccc3c2O1 (single isomer, unassigned; (-)) [Example 12, (−)-1-(2,3-dihydronaphtho[1,2-b]furan-2-yl)methanamine] | – | 0.002 | 16 | 90 | – |
| COc1cc2c(c3c1C1CCC3C1)OC(CN)C2 (stereo not drawn) [Example 15, (9-methoxy-4-oxatetracyclo[9.2.1.0^2,10.0^3,7]tetradeca-2,7,9-trien-5-yl)methylamine] | 100 | 0.017 | 9 | – | – |
| NCC1Cc2ccc3ccccc3c2O1 (single isomer, unassigned; (+)) [Example 11, (+)-1-(2,3-dihydronaphtho[1,2-b]furan-2-yl)methanamine] | – | 0.0057 | 15 | 65 | – |
| COc1cc2c(c3c1C1CCC3C1)OC(CN)C2 (single isomer, unassigned) [Example 18, (9-methoxy-4-oxatetracyclo[9.2.1.0^2,10.0^3,7]tetradeca-2,7,9-trien-5-yl)methylamine] | – | – | 82 | – | – |
| NCC1Cc2c(ccc3c2CCCC3)O1 (racemic) [Example 14, (±)-1-(1,2,6,7,8,9-hexahydronaphtho[2,1-b]furan-2-yl)methanamine] | 100 | 0.034 | 19 | – | – |
| NCC1Cc2cc(Cl)c3c(c2O1)CCC3 (single isomer, unassigned; (-)) [Example 30, (−)-1-(5-chloro-3,6,7,8-tetrahydro-2H-indeno[4,5-b]furan-2-yl)methanamine] | – | 0.234 | 6 | 80 | – |
| COc1cc(CC(C)N)c(OC)cc1I (stereo not drawn) [[^125I] DOI, reference compound] | – | – | – | – | Kd ([2]; saturation binding with increasing concentrations of [125I]DOI, read-out: dissociation constant, KD): 0.0004 µM |
| C[C@@H](N)[C@H]1Cc2ccc3c(c2O1)CCC3 (single isomer, unassigned) [Example 22, (2R*)-1-[(2R*)-3,6,7,8-tetrahydro-2H-indeno[4,5-b]furan-2-yl]ethylamine] | – | 0.015 | – | – | Emax [1]: 80%; Ki ([2]; 5-HT2C Affinity Ki (nM)): 13 nM |
| NCC1Cc2c(Cl)cc3c(c2O1)CCC3 (single isomer, unassigned; (+)) [Example 27, (+)-1-(4-chloro-3,6,7,8-tetrahydro-2H-indeno[4,5-b]furan-2-yl)methanamine] | – | 0.056 | 4 | 60 | – |
| Cc1cc2c(c3c1CCC3)OC(CN)C2 (racemic) [Example 7, (±)-1-(5-methyl-3,6,7,8-tetrahydro-2H-indeno[4,5-b]furan-2-yl)methanamine] | 95 | 0.019 | 6 | – | – |
| NCC1Cc2ccc3c(c2O1)CCC3 (single isomer, unassigned; (-)) [Example 3, (−)-1-(3,6,7,8-tetrahydro-2H-indeno[4,5-b]furan-2-yl)methanamine] | – | 0.0009 | 5 | 100 | – |
| Cc1cc2c(c3c1CCC3)OC(CN)C2 (single isomer, unassigned; (+)) [Example 8, (+)-1-(5-methyl-3,6,7,8-tetrahydro-2H-indeno[4,5-b]furan-2-yl)methanamine] | 100 | 0.0083 | 6 | – | – |

| SMILES | Emax [1, 3] [%] | EC50 [1] [µM] | Ki ([2]; read-out: 5-HT2C Affinity Ki) [nM] | 5-HT2C Function Emax (%) [1, 3] [%] | further results |
| --- | --- | --- | --- | --- | --- |
| CSc1ccc2c(c1)C(N1CCN(C)CC1)Cc1ccccc1S2 (stereo not drawn) [Methiothepin, reference compound] | – | – | – | – | Ki ([2]; reference compounds, read-out: Ki (95% confidence interval)): 4.6 nM |
| COc1cc2c(c3c1C1CCC3C1)OC(CN)C2 (single isomer, unassigned) [Example 17, (9-methoxy-4-oxatetracyclo[9.2.1.0^2,10.0^3,7]tetradeca-2,7,9-trien-5-yl)methylamine] | 100 | 0.01 | 8 | – | – |
| NCC1Cc2ccc3ccccc3c2O1 (racemic) [Example 10, (±)-1-(2,3-dihydronaphtho[1,2-b]furan-2-yl)methanamine] | 90 | 0.02 | 29 | – | – |
| COc1cc2c(c3c1C1CCC3C1)OC(CN)C2 (single isomer, unassigned) [Example 16, (9-methoxy-4-oxatetracyclo[9.2.1.0^2,10.0^3,7]tetradeca-2,7,9-trien-5-yl)methylamine] | – | – | 85 | – | – |
| CNCC1Cc2cc(Cl)c3ccccc3c2O1 (racemic) [Example 24, (±)-1-(5-chloro-2,3-dihydronaphtho[1,2-b]furan-2-yl)-N-methylmethanamine] | 60 | 0.091 | 7 | – | – |
| COc1cc2c(c3c1C1CCC3CC1)OC(CN)C2 (racemic) [Example 19, (±)-1-(5-methoxy-2,3,6,7,8,9-hexahydro-6,9-ethanonaphtho[1,2-b]furan-2-yl)methanamine] | 100 | 0.025 | 7 | – | – |
| COc1cc2c(c3c1C1CCC3CC1)OC(CN)C2 (single isomer, unassigned; (+)) [Example 20, (+)-1-(5-methoxy-2,3,6,7,8,9-hexahydro-6,9-ethanonaphtho[1,2-b]furan-2-yl)methanamine] | – | 0.091 | 22 | 60 | – |
| NCC1Cc2ccc3c(c2O1)CCC3 (single isomer, unassigned; (+)) [Example 2, (+)-1-(3,6,7,8-tetrahydro-2H-indeno[4,5-b]furan-2-yl)methanamine] | – | 0.008 | 28 | 75 | – |
| NCC1Cc2c(Cl)cc3c(c2O1)CCC3 (single isomer, unassigned; (-)) [Example 26, (−)-1-(4-chloro-3,6,7,8-tetrahydro-2H-indeno[4,5-b]furan-2-yl)methanamine] | 80 | 0.088 | 16 | – | – |
| NCC1Cc2cc(Cl)c3ccccc3c2O1 (racemic) [Example 23, (±)-1-(5-chloro-2,3-dihydronaphtho[1,2-b]furan-2-yl)methanamine] | 90 | 0.028 | 5 | – | – |
| NCC1Cc2ccc3c(c2O1)CCCC3 (single isomer, unassigned; (-)) [Example 6, (−)-1-(2,3,6,7,8,9-hexahydronaphtho[1,2-b]furan-2-yl)methanamine] | – | 0.003 | 11 | 100 | – |
| NCC1Cc2c(Cl)cc3c(c2O1)CCC3 (racemic) [Example 25, (±)-1-(4-chloro-3,6,7,8-tetrahydro-2H-indeno[4,5-b]furan-2-yl)methanamine] | 80 | 0.0044 | 12 | – | – |
| NCC1Cc2ccc3c(c2O1)CCCC3 (racemic) [Example 4, (±)-1-(2,3,6,7,8,9-hexahydronaphtho[1,2-b]furan-2-yl)methanamine] | 80 | 0.076 | 8 | – | – |
| NCC1Cc2ccc3c(c2O1)CCCC3 (single isomer, unassigned; (+)) [Example 5, (+)-1-(2,3,6,7,8,9-hexahydronaphtho[1,2-b]furan-2-yl)methanamine] | – | 0.038 | 17 | 70 | – |
| NCC1Cc2cc3c(cc2O1)CCCC3 (racemic) [Example 13, (±)-1-(2,3,5,6,7,8-hexahydronaphtho[2,3-b]furan-2-yl)methanamine] | – | – | 99 | – | – |
| NCC1Cc2cc(Cl)c3c(c2O1)CCC3 (racemic) [Example 29, (±)-1-(5-chloro-3,6,7,8-tetrahydro-2H-indeno[4,5-b]furan-2-yl)methanamine] | 100 | 0.0058 | 4 | – | – |
